According to patent publication US20260335282A1, “NOVEL 3-ARYLIDENE-2-INDOLINONE DERIVATIVES FOR THERAPEUTIC USE” (ISTANBUL UNIVERSITESI REKTORLUGU, priority 2022, published 2026):
Read-outs that look alike come from different tables or passages of the source.

Columns and labels:
Assay type in all cases: cell-based, human
CAKI-1 cells = experiment: MTT cytotoxicity, kidney cancer cells CAKI-1
Excerpt: (§1) The cytotoxicity, general tyrosine kinase inhibitory effects and cell death (apoptosis/necrosis) assays of 1-benzyl-3-(1H-indol-3-ylmethylidene)-1,3-dihydro-2H-indol-2-one derivatives (Formula 5) of the present invention are studied by the following methods. […] HUVEC (human umbilical vein endothelial cell), MCF-10F (human breast epithelial cell) and Beas2b (human lung bronchial epithelial cell) cell lines have been used as healthy control cells in MTT experiments.
(§2) Beas2b (human lung bronchiole epithelial cell) and HEK293 (renal tubule epithelium) cells used as normal cell lines were cultured in RPMI medium, and HUVEC (human umbilical cord endothelial cells) and MCF-10F (human breast epithelial cell) cells are cultured in DMEM medium containing 100 µg/ml penicillin/streptomycin. The cells, which covered 70% of the culture flask, are washed with phosphate buffer and then removed from the surface of the flask by application of trypsin-ethylenediamine tetraacetic acid (Trypsin-EDTA; 0.25%) solution, passaged, counted and seeded on appropriate plates before each experiment. Cells are treated with a total of 45 2-indolinone compounds (5) at concentrations of 0.1, 1, 5 and 10 μM. Stock compounds are prepared in 1 ml dimethylsulfoxide (DMSO) and 4 different dilutions were prepared with medium and performed to the cells. Control group cells are treated with DMSO at a similar concentration to the experimental groups.
(§3) MTT (3-(4,5-dimethylthiazol-2-yl)-2,5-diphenyl-2H-tetrazolium bromide) colorimetric assay provides quantitation of viable cells with ongoing mitochondrial activity in culture medium. According to the standard procedure in cell culture conditions, cells are maintained in RPMI-1640 and DMEM culture media containing 10% FBS and 1% penicillin/streptomycin. The trypan blue test is used for cell counts.
(§4) The effects of 45 2-indolinone compounds (5) on cell viability in all cancer cell lines are investigated by MTT assay. Cells are seeded in a 96-well flat bottom plate with 5000 cells in each well and 2-indolinone compounds (5) at concentrations of 0.1, 1, 5 and 10 μM are performed to the cells the next day. After 48 and/or 72 hours following treatment with 2-indolinone compounds, 50 μl of the supernatant is slowly discarded (as it was acid medium) and MTT at a concentration of 5 mg/ml is added to each well in a volume of 10 μl. After incubation for 4 hours, the formazan crystals formed in the wells are dissolved by adding 100 μl DMSO and the optical density is read at 570 nm test wavelength and 630 nm reference wavelength. Cell viability is expressed as % cell viability by comparing the absorbance of control and test wells. IC50 value is calculated from the dose-response curves prepared for each compound. In addition, the possible DMSO effect is eliminated by preparing negative control wells compatible with the amount of DMSO contained in the compounds. To understand the reaction of the compounds with MTT, cell-free (MTT+compounds) negative controls are prepared at the concentrations used (Mosmann, 1983). […] The absorbance values obtained are compared to the control and statistically evaluated by unpaired t-test using “Graphpad Prism 5.04” software. “P<0.05” is accepted as significant. When evaluating cytotoxic effects, the present inventors aim for the inventive compounds to be effective in cancer cells and ineffective in healthy cells. The inventive compounds have also been compared with sunitinib, one of the reference chemotherapy drugs currently used in treatment.
(§5) Among the compounds of the present invention, those that killed cancer cells by at least 50% (p<0.05) are selected and tested whether a 10-fold concentration of the M concentration at the IC50 value is toxic to normal healthy cells.

A498 cells = experiment: MTT cytotoxicity, kidney cancer cells A498; settings: MTT
Excerpt: as §1, §2, §3, §4, §5

MCF-7 cells = experiment: MTT cytotoxicity, breast cancer cells MCF-7; settings: MTT
Excerpt: as §1, §2, §3, §4, §5

MIAPaCa-2 cells = experiment: MTT cytotoxicity, pancreas cancer cells MIAPaCa-2; settings: MTT
Excerpt: as §1, §2, §3, §4

HUVEC cells = experiment: MTT cytotoxicity, healthy cells HUVEC; settings: for IC50: MTT; for Selectivite Index, HUVEC (Table 2): HUVEC vs colon or pancreas cancer cells, cancer line not given
Excerpt: as §1, §2, §3, §4, §5

MCF-10F/Beas2b cells = experiment: MTT cytotoxicity, healthy cells MCF-10F/Beas2b; settings: for IC50: MTT; for Selectivite Index, MCF-10F/Beas2b (Table 2): MCF-10F/Beas2b vs colon or pancreas cancer cells, cancer line not given
Excerpt: as §1, §2, §3, §4, §5

HCT-116 cells = experiment: MTT cytotoxicity, colon cancer cells HCT-116; settings: no * mark (incubation time not specified)
Excerpt: as §1, §2, §3, §4

HT-29 cells = experiment: MTT cytotoxicity, colon cancer cells HT-29; settings: MTT, no * mark (incubation time not specified)
Excerpt: as §1, §2, §3, §4

MDA-MB-231 cells = experiment: MTT cytotoxicity, breast cancer cells MDA-MB-231; settings: read-out: IC50, MDA-MB-231 (breast), MTT
Excerpt: as §1, §2, §3, §4, §5

A549 cells = experiment: MTT cytotoxicity, lung cancer cells A549; settings: no * mark (incubation time not specified)
Excerpt: as §1, §2, §3, §4, §5

[1] = no * mark (incubation time not specified)
[2] = no * mark (incubation time not given)
[3] = *: effective 72 hours after incubation

Compound | IC50 (CAKI-1 cells; [1]) [µM] | IC50 (A498 cells; [1]) [µM] | IC50 (MCF-7 cells; [1]) [µM] | IC50 (MIAPaCa-2 cells; [1]) [µM] | IC50 (HUVEC cells; [1]) [µM] | IC50 (MCF-10F/Beas2b cells; [1]) [µM] | IC50 (HCT-116 cells) [µM] | IC50 (HT-29 cells) [µM] | IC50 (MDA-MB-231 cells; [2]) [µM] | IC50 (A549 cells) [µM] | IC50 (CAKI-1 cells; [3]) [µM] | IC50 (A498 cells; [3]) [µM] | Selectivite Index, HUVEC (Table 2) (HUVEC cells) | Selectivite Index, MCF-10F/Beas2b (Table 2) (MCF-10F/Beas2b cells) | IC50 (MCF-10F/Beas2b cells; [3]) [µM] | IC50 (MIAPaCa-2 cells; [3]) [µM] | IC50 (HUVEC cells; [3]) [µM] | IC50 (MCF-7 cells; [3]) [µM] | IC50 (MDA-MB-231 cells; [3]) [µM]
Cc1cccc(CN2C(=O)C(=Cc3c[nH]c4ccccc34)c3cccc(F)c32)c1 [34C] | 7.61 | 3.64 | > 10 | > 10 | 1.69 | 4.1 | 0.64 | > 10 | > 10 | 4.7 |  |  |  |  |  |  |  |  | 
O=C1/C(=C\c2c[nH]c3ccccc23)c2cc(Cl)cc(Cl)c2N1Cc1ccccc1 [36C] |  |  | > 10 | 0.46 | 2.24 |  | 2.51 | > 10 | > 10 | 2.35 | 4.01 | 1.46 | 4.87 | 7.83 | 3.6 |  |  |  | 
O=C1C(=Cc2c[nH]c3ccccc23)c2cc(Cl)ccc2N1Cc1cccc(Cl)c1 [18C] | 3.46 | 1.75 | 5.53 |  | 1.07 | 1.07 | 3.94 | 3.12 | 7.99 | 6.57 |  |  |  |  |  | 1.54 |  |  | 
O=C1/C(=C\c2c[nH]c3ccccc23)c2cccc(F)c2N1Cc1ccccc1 [29C] | 4.12 | > 10 | 4.35 | > 10 |  |  | > 10 | > 10 | > 10 | > 10 |  |  |  |  |  |  | 0.95 |  | 
Cc1cccc(CN2C(=O)/C(=C\c3c[nH]c4ccccc34)c3cc(OC(F)(F)F)ccc32)c1 [6C] | 9.66 | > 10 | 4.72 |  | > 10 |  | > 10 | > 10 | 9.87 | > 10 |  |  |  |  |  | > 10 |  |  | 
O=C1/C(=C\c2c[nH]c3ccccc23)c2cc(OC(F)(F)F)ccc2N1Cc1cccc(Cl)c1 [4C] |  | 3.05 |  |  | 0.97 | 1.73 | 1.13 | > 10 |  | 2.42 | 2.79 |  |  |  |  | 3.67 |  | 3.06 | 3.07
Cc1ccc2c(c1)/C(=C/c1c[nH]c3ccccc13)C(=O)N2Cc1ccc(F)cc1 [45C] |  |  | > 10 | > 10 | 2.62 |  | 0.47 | > 10 | > 10 | 2.22 | 4.91 | 0.78 | 5.57 | 6.14 | 2.89 |  |  |  | 
Cc1ccc2c(c1)/C(=C/c1cn(C)c3ccccc13)C(=O)N2Cc1ccccc1 [Y13] | > 10 | > 10 | > 10 | 2.2 | 3.37 |  | 4.58 | 3.37 | > 10 | > 10 |  |  |  |  |  |  |  |  | 
O=C1/C(=C\c2c[nH]c3ccccc23)c2cccc(Cl)c2N1Cc1cccc(F)c1 [23C] | 4.88 | 8.33 | 3.07 |  | > 10 |  | > 10 | > 10 | > 10 | > 10 |  |  |  |  |  | > 10 |  |  | 
Cn1cc(/C=C2\C(=O)N(Cc3ccccc3)c3ccccc32)c2ccccc21 [Y12] | > 10 | > 10 | > 10 | > 10 | > 10 |  | 1.46 | > 10 | > 10 | > 10 |  |  |  |  |  |  |  |  | 
